Measurements as given in article PMC9897758, “Computational prediction and in vitro analysis of the potential ligand binding site within the extracellular ATP receptor, P2K2” (Plant Signaling & Behavior, 2023).
Residue numbers refer to the chain shown, from its start.

What was measured:
Test in all cases: radioligand binding, gel filtration separation of bound and free ATP, saturation fit
[1] = target: T1, P2K2 extracellular lectin domain (LecRK-I.5), GST-tagged (Arabidopsis thaliana, UniProt Q9M1G4)
T1 construct: gene LECRK15; extracellular lectin domain (ectodomain), GST fusion, purified from E. coli BL21-AI
T1 sequence (Q9M1G4 23-286 limits assumed): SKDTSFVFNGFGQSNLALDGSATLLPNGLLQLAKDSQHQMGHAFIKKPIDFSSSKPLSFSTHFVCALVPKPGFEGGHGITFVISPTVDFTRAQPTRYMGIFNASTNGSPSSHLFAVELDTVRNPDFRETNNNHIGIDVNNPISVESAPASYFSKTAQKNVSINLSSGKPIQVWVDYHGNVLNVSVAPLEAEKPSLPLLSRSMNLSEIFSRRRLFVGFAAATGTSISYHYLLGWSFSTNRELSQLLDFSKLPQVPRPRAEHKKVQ

[2] = target: T2, P2K2 extracellular lectin domain (LecRK-I.5), GST-tagged (Arabidopsis thaliana, UniProt Q9M1G4, T245A)
T2 construct: gene LECRK15; extracellular lectin domain (ectodomain), GST fusion, purified from E. coli BL21-AI
T2 sequence (Q9M1G4 23-286 T245A limits assumed): T1 sequence (Q9M1G4 23-286 limits assumed) with T223A

[3] = target: T3, P2K2 extracellular lectin domain (LecRK-I.5), GST-tagged (Arabidopsis thaliana, UniProt Q9M1G4, S246A)
T3 construct: gene LECRK15; extracellular lectin domain (ectodomain), GST fusion, purified from E. coli BL21-AI
T3 sequence (Q9M1G4 23-286 S246A limits assumed): T1 sequence (Q9M1G4 23-286 limits assumed) with S224A

[4] = target: T4, P2K2 extracellular lectin domain (LecRK-I.5), GST-tagged (Arabidopsis thaliana, UniProt Q9M1G4, H99A)
T4 construct: gene LECRK15; extracellular lectin domain (ectodomain), GST fusion, purified from E. coli BL21-AI
T4 sequence (Q9M1G4 23-286 H99A limits assumed): T1 sequence (Q9M1G4 23-286 limits assumed) with H77A

[5] = target: T5, P2K2 extracellular lectin domain (LecRK-I.5), GST-tagged (Arabidopsis thaliana, UniProt Q9M1G4, R144A)
T5 construct: gene LECRK15; extracellular lectin domain (ectodomain), GST fusion, purified from E. coli BL21-AI
T5 sequence (Q9M1G4 23-286 R144A limits assumed): T1 sequence (Q9M1G4 23-286 limits assumed) with R122A

Compound: Nc1ncnc2c1ncn2[C@@H]1O[C@H](COP(=O)(O)OP(=O)(O)OP(=O)(O)O)[C@@H](O)[C@H]1O [ATP]
- Kd [1]: 41.6 ± 13.8 nM
- Kd [2]: 41.7 ± 14.1 nM
- Kd [3]: 109 ± 29.7 nM
- Kd [4]: > 1000 nM
- Kd [5]: 104 ± 25 nM
